From ChEMBL document CHEMBL1201862, “PubChem BioAssay data set” (2004)
Counter-ions that a name gives are not always drawn.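 96-well plates; 48 h exposure; 5 concentrations. Endpoints by linear interpolation between flanking doses. Not reached: highest tested concentration assigned. GI50 marks 50% less growth.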 The source made the active and inactive calls. Rule as the data show it: active = GI50 up to about 1.1 µM and inactive = higher.

Experiments:
Test in all cases: DTP human tumour cell line panel, 48 h
MDA-MB-435 = tested on: MDA-MB-435
KM12 = tested on: KM12
SN12C = tested on: SN12C
M14 = tested on: M14
Hs-578T = tested on: Hs-578T
NCI-H522 = tested on: NCI-H522
RPMI-8226 = tested on: RPMI-8226
SW-620 = tested on: SW-620
NCI-H460 = tested on: NCI-H460
SF-295 = tested on: SF-295
NCI-H226 = tested on: NCI-H226
SNB-75 = tested on: SNB-75
HCC 2998 = tested on: HCC 2998
TK-10 = tested on: TK-10
SF-268 = tested on: SF-268
RXF 393 = tested on: RXF 393
OVCAR-8 = tested on: OVCAR-8
MDA-N = tested on: MDA-N
EKVX = tested on: EKVX
CCRF-CEM = tested on: CCRF-CEM

Structure (SMILES)	GI50 (MDA-MB-435)	GI50 (KM12)	GI50 (SN12C)	GI50 (M14)	GI50 (Hs-578T)	GI50 (NCI-H522)	GI50 (RPMI-8226)	GI50 (SW-620)	GI50 (NCI-H460)	GI50 (SF-295)	GI50 (NCI-H226)	GI50 (SNB-75)	GI50 (HCC 2998)	GI50 (TK-10)	GI50 (SF-268)	GI50 (RXF 393)	GI50 (OVCAR-8)	GI50 (MDA-N)	GI50 (EKVX)	GI50 (CCRF-CEM)
Oc1cccc(Nc2cc(O)nc(O)n2)c1	> 100 µM (inactive)	> 100 µM (inactive)	> 100 µM (inactive)	> 100 µM (inactive)	> 100 µM (inactive)	> 100 µM (inactive)	> 100 µM (inactive)	> 100 µM (inactive)	> 100 µM (inactive)	> 100 µM (inactive)	> 100 µM (inactive)	> 100 µM (inactive)	> 100 µM (inactive)	> 100 µM (inactive)	> 100 µM (inactive)	> 100 µM (inactive)	> 100 µM (inactive)	> 100 µM (inactive)	> 100 µM (inactive)	> 100 µM (inactive)
C=C1CCOC2(C(O)C(C)(O)CO)NC(=O)C1(O)NC2=O (stereo not given)	> 100 µM (inactive)	> 100 µM (inactive)	> 100 µM (inactive)	> 100 µM (inactive)	> 100 µM (inactive)	> 100 µM (inactive)	> 100 µM (inactive)	> 100 µM (inactive)	> 100 µM (inactive)	> 100 µM (inactive)	> 100 µM (inactive)	> 100 µM (inactive)	> 100 µM (inactive)	> 100 µM (inactive)	> 100 µM (inactive)	> 100 µM (inactive)	> 100 µM (inactive)	> 100 µM (inactive)	> 100 µM (inactive)	> 100 µM (inactive)
CCOc1cc(NC(C)=O)ccc1C(=O)NN1C(=O)CSC1c1ccccc1 (stereo not given)	> 100 µM (inactive)	71.4 µM (inactive)	> 100 µM (inactive)	> 100 µM (inactive)	> 100 µM (inactive)	43.2 µM (inactive)	26.1 µM (inactive)	> 100 µM (inactive)	> 100 µM (inactive)	45.2 µM (inactive)	> 100 µM (inactive)	95.3 µM (inactive)	> 100 µM (inactive)	48.8 µM (inactive)	> 100 µM (inactive)	74.6 µM (inactive)	48 µM (inactive)	84.9 µM (inactive)	91 µM (inactive)	37.8 µM (inactive)
COC(=O)Cc1ccc2c(cnn2-c2ccccc2)c1OC	> 10 µM (inactive)	> 10 µM (inactive)	> 10 µM (inactive)	> 10 µM (inactive)	> 10 µM (inactive)	> 10 µM (inactive)	> 10 µM (inactive)	> 10 µM (inactive)	> 10 µM (inactive)	> 10 µM (inactive)	> 10 µM (inactive)	> 10 µM (inactive)	> 10 µM (inactive)	> 10 µM (inactive)	> 10 µM (inactive)	> 10 µM (inactive)	> 10 µM (inactive)	> 10 µM (inactive)	9.75 µM (inactive)	> 10 µM (inactive)
COC(=O)[C@]1(NC(=O)c2ccccc2)C[C@H]1C=O	> 100 µM (inactive)	> 61.5 µM (inactive)	> 100 µM (inactive)	> 100 µM (inactive)	> 55.5 µM (inactive)	> 61.1 µM (inactive)	> 100 µM (inactive)	> 100 µM (inactive)	15 µM (inactive)	> 78.5 µM (inactive)	46.7 µM (inactive)	> 42.9 µM (inactive)	57.7 µM (inactive)	> 100 µM (inactive)	> 84.5 µM (inactive)	> 100 µM (inactive)	> 100 µM (inactive)	> 100 µM (inactive)	> 100 µM (inactive)	21.6 µM (inactive)
CCOC(=O)C#Cc1ccc([N+](=O)[O-])cc1	3.44 µM (inactive)	1.82 µM (inactive)	1.69 µM (inactive)	2.15 µM (inactive)	4.18 µM (inactive)	1.49 µM (inactive)	1.98 µM (inactive)	2.28 µM (inactive)	12.4 µM (inactive)	12.9 µM (inactive)	2.68 µM (inactive)	2.24 µM (inactive)	14.8 µM (inactive)	14.3 µM (inactive)	2.52 µM (inactive)	1.28 µM (inactive)	2.37 µM (inactive)	3.19 µM (inactive)	3.15 µM (inactive)	1.1 µM (active)
O=C1/C(=C/c2ccc(O)cc2)Oc2ccccc21	83.9 µM (inactive)	90.6 µM (inactive)	> 100 µM (inactive)	> 100 µM (inactive)	> 100 µM (inactive)	23.8 µM (inactive)	59.2 µM (inactive)	> 100 µM (inactive)	> 100 µM (inactive)	> 100 µM (inactive)	> 100 µM (inactive)	60.1 µM (inactive)	> 100 µM (inactive)	> 100 µM (inactive)	> 100 µM (inactive)	> 100 µM (inactive)	> 100 µM (inactive)	> 100 µM (inactive)	> 100 µM (inactive)	32.2 µM (inactive)
C=CCSS/C=C/C[S+]([O-])CC=C (stereo not given) [AJOENE]	18.2 µM (inactive)	57.8 µM (inactive)	26 µM (inactive)	20.9 µM (inactive)	26.4 µM (inactive)	16.7 µM (inactive)	10.4 µM (inactive)	7.8 µM (inactive)	35.8 µM (inactive)	58.7 µM (inactive)	41.3 µM (inactive)	70 µM (inactive)	63.1 µM (inactive)	> 85.7 µM (inactive)	25 µM (inactive)	24.9 µM (inactive)	18.5 µM (inactive)	18.8 µM (inactive)	> 100 µM (inactive)	3.44 µM (inactive)
C[C@@H]1C[C@@H](O)[C@]2(O)O[C@@H]3C[C@@]4(C=O)[C@@H](CC[C@@H]5[C@@H]4CC[C@]4(C)[C@@H](C6=CC(=O)OC6)CC[C@]54O)C[C@H]3O[C@@H]2O1 [CALACTIN]	0.0441 µM (active)	0.0226 µM (active)	0.00301 µM (active)	0.0222 µM (active)	0.0202 µM (active)	0.00138 µM (active)	0.0281 µM (active)	0.0133 µM (active)	0.00464 µM (active)	0.0133 µM (active)	0.0243 µM (active)	0.0251 µM (active)	0.161 µM (active)	0.00906 µM (active)	0.00231 µM (active)	0.0194 µM (active)	0.0108 µM (active)	0.0538 µM (active)	0.0244 µM (active)	0.00371 µM (active)
CC1=C(CO)C2=C(C)C3(CC3)[C@@](C)(O)C(=O)C2=C1 [IROFULVEN]	1.47 µM (inactive)	0.697 µM (active)	0.409 µM (active)	0.258 µM (active)	0.29 µM (active)	0.146 µM (active)	34.1 µM (inactive)	0.614 µM (active)	0.0467 µM (active)	0.302 µM (active)	0.191 µM (active)	0.191 µM (active)	0.153 µM (active)	0.279 µM (active)	0.234 µM (active)	0.0507 µM (active)	0.219 µM (active)	1.04 µM (active)	0.19 µM (active)	1.82 µM (inactive)
NCCCNCCCCNCCCN [SPERMINE TETRAHYDROCHLORIDE]	> 41.2 µM (inactive)	> 100 µM (inactive)	4.41 µM (inactive)	9.66 µM (inactive)	11.9 µM (inactive)	0.374 µM (active)	0.284 µM (active)	3.66 µM (inactive)	> 100 µM (inactive)	> 100 µM (inactive)	> 100 µM (inactive)	> 100 µM (inactive)	> 48.5 µM (inactive)	6.62 µM (inactive)	> 42.7 µM (inactive)	14.1 µM (inactive)	34.3 µM (inactive)	15.2 µM (inactive)	17.8 µM (inactive)	3.67 µM (inactive)
